Here are results for 41 molecules from patent publication US8722720B2, “Imidazole derivatives as IDO inhibitors” (NewLink Genetics Corporation, priority 2010, dated 2014).

For one assay, the target named is T1, purified human IDO protein (Homo sapiens, UniProt P14902).
T1 construct: 2 extra amino acids (linker from the BglII cloning site of pQE70); made in house; host or cells: E. coli M15(pREP4) with plasmid pQE70-hIDO
T1 sequence (P14902 whole entry P110S/E119G): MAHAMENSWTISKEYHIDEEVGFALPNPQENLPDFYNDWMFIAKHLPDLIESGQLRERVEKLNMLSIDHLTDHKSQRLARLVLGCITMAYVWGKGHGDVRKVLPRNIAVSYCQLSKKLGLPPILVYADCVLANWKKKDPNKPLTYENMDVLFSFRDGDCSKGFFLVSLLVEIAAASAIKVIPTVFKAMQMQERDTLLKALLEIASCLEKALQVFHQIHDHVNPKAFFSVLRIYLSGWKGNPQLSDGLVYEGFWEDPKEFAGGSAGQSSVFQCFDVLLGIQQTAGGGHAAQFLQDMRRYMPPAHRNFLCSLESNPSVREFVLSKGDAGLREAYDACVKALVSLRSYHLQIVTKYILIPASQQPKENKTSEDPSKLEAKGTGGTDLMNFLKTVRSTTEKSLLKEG
The assay is described as follows: Enzymatic IDO assay (kynurenine production, absorbance at 480 nm). It is filed as biochemical. The following applies: hIDO IC50, recombinant human IDO; values reported in ranges. Here is the method: The inhibitors were initially diluted in DMSO at 100 mM and were diluted in potassium phosphate 50 mM, added to the reaction mixture at final concentrations raging from 1 mM to 5 nM and preincubated with the enzyme for 5 min at 25° C. The reaction was started by addition of L-tryptophan to 200 μM and incubated 15 min at 37° C. The reaction was stopped by addition of 0.5 vol of 30% trichloroacetic acid and incubated 30 min at 60° C. to hydrolyze N-formylkynurenine to kynurenine. The reaction was centrifuged at 3400 g for 5 min to remove precipitated protein and the supernatant was reacted with 2% (w/v) of p-dimethylaminobenzaldehyde in acetic acid. The reaction was incubated 10 min at 25° C. and read at 480 nm in a spectrophotometer. […] Nonlinear regressions and determination of the IC50 values were performed using the GraphPad Prism 4 software.
As usually defined, the IC50 is the point on the concentration scale where inhibition reaches its midpoint. Consider `O=C1NCCN1C(=O)Oc1ccc(Cl)cc1-c1c[nH]cn1` [compound 1147, 4-chloro-2-(1H-imidazol-4-yl)phenyl 2-oxoimidazolidine-1-carboxylate], for which the IC50 fell in the range of 1 to 10 µM.

The assay is the same for the next values; noted with them: recombinant human IDO; values reported in ranges; read-out: hIDO IC50.
For the molecule `CC(C)(C)CC(=O)N1CCC(CCOc2ccccc2-c2c[nH]cn2)CC1` [compound 1143, 1-(4-(2-(2-(1H-imidazol-4-yl)phenoxy)ethyl)piperidin-1-yl)-3,3-dimethylbutan-1-one], the IC50 was in the range of 10 to 100 µM.

On to `Oc1cccc(OCCc2ccc(Cl)cc2)c1-c1cnc[nH]1` [compound 1148, 3-(4-chlorophenethoxy)-2-(1H-imidazol-5-yl) phenol], for which the IC50 lay in the range of 1 to 10 µM.

`CC(C)(C)COC(=O)N1CCC(CCOc2ccccc2-c2c[nH]cn2)CC1` [compound 1149, neopentyl 4-(2-(2-(1H-imidazol-4-yl)phenoxy)ethyl)piperidine-1-carboxylate]: the IC50 lay in the range of 10 to 100 µM.

For the molecule `O=C(Nc1ccc(CCOc2ccccc2-c2c[nH]cn2)cc1)c1cccs1` [compound 1150, N-(4-(2-(2-(1H-imidazol-4-yl)phenoxy)ethyl)phenyl)thiophene-2-carboxamide], the IC50 was in the range of 1 to 10 µM.

For the molecule `O=S(=O)(Cc1ccccc1)Nc1ccc(CCOc2ccccc2-c2c[nH]cn2)cc1` [compound 1151, N-(4-(2-(2-(1H-imidazol-4-yl)phenoxy)ethyl)phenyl)-1-phenylmethanesulfonamide], the IC50 lay within 1 to 10 µM.

`O=C(Nc1ccccc1)Nc1ccc(CCOc2ccccc2-c2cnc[nH]2)cc1` [compound 1152, 1-(4-(2-(2-(1H-imidazol-4-yl)phenoxy)ethyl)phenyl)-3-phenylurea]: the IC50 is < 1 µM.

Regarding `O=C(Cc1cnccn1)Nc1ccc(CCOc2ccccc2-c2c[nH]cn2)cc1` [compound 1153, N-(4-(2-(2-(1H-imidazol-4-yl)phenoxy)ethyl)phenyl)-2-(pyrazin-2-yl)acetamide], the IC50 fell in the range of 10 to 100 µM.

On to `O=C(Cc1cccs1)Nc1ccc(CCOc2ccccc2-c2c[nH]cn2)cc1` [compound 1154, N-(4-(2-(2-(1H-imidazol-4-yl)phenoxy)ethyl)phenyl)-2-(thiophen-2-yl)acetamide], for which the IC50 is 1 to 10 µM.

`O=C(Cc1cnccn1)Nc1ccc(CCOc2ccccc2-c2c[nH]cn2)cc1` [compound 1156, N-(4-(2-(2-(1H-imidazol-4-yl)phenoxy)ethyl)phenyl)-2-(pyrazin-2-yl)acetamide]: the IC50 lay in the range of 1 to 10 µM.

As for `CC(=O)Nc1ccc(CCOc2ccccc2-c2c[nH]cn2)c(Cl)c1` [compound 1159, N-(4-(2-(2-(1H-imidazol-4-yl)phenoxy)ethyl)-3-chlorophenyl)acetamide], the IC50 lay in the range of 1 to 10 µM.

For `Oc1cccc(OCCc2cccc(Cl)c2)c1-c1cnc[nH]1` [compound 1160, 3-(3-chlorophenethoxy)-2-(1H-imidazol-5-yl) phenol], the IC50 lay in the range of 1 to 10 µM.

With `O=C(c1cccs1)N1CCC(CCOc2ccccc2-c2c[nH]cn2)CC1` [compound 1165, (4-(2-(2-(1H-imidazol-4-yl)phenoxy)ethyl)piperidin-1-yl)(thiophen-2-yl)methanone], the IC50 fell in the range of 1 to 10 µM.

With `Oc1ccc(Cl)c(OCCC2CCCCC2)c1-c1cnc[nH]1` [compound 1172, 4-chloro-3-(2-cyclohexylethoxy)-2-(1H-imidazol-5-yl)phenol], the IC50 lay in the range of 1 to 10 µM.

Consider `O=C(Cc1cccs1)N1CCC(CCOc2ccccc2-c2c[nH]cn2)CC1` [compound 1176, 1-(4-(2-(2-(1H-imidazol-4-yl)phenoxy)ethyl)piperidin-1-yl)-2-(thiophen-2-yl)ethanone], for which the IC50 was in the range of 1 to 10 µM.

Regarding `Clc1cccc(-c2cnc[nH]2)c1OCCC1CCCCC1` [compound 1177, 5-(3-chloro-2-(2-cyclohexylethoxy)phenyl)-1H-imidazole], the IC50 lay in the range of 1 to 10 µM.

For `CN(C)c1ccc(CCOc2ccccc2-c2c[nH]cn2)cc1` [compound 1181, 4-(2-(2-(1H-imidazol-4-yl)phenoxy)ethyl)-N,N-dimethylaniline], the IC50 was in the range of 10 to 100 µM.

As to `Oc1cccc(OCCC2CC=CCC2)c1-c1cnc[nH]1` (centres unmarked) [compound 1182, 3-(2-(cyclohex-3-en-1-yl)ethoxy)-2-(1H-imidazol-5-yl)phenol], the IC50 was in the range of 1 to 10 µM.

Regarding `O=C(Cc1ccccc1)N1CCC(CCOc2ccccc2-c2c[nH]cn2)CC1` [compound 1186, 1-(4-(2-(2-(1H-imidazol-4-yl)phenoxy)ethyl)piperidin-1-yl)-2-phenylethanone], the IC50 was in the range of 1 to 10 µM.

As for `C1=CCC(CCOc2ccccc2-c2c[nH]cn2)CC1` (centres unmarked) [compound 1191, 4-(2-(2-(cyclohex-3-en-1-yl)ethoxy)phenyl)-1H-imidazole], the IC50 was in the range of 1 to 10 µM.

On to `O=C(Nc1ccc(CCOc2ccccc2-c2c[nH]cn2)cc1)Nc1ccccc1[N+](=O)[O-]` [compound 1192, 1-(4-(2-(2-(1H-imidazol-4-yl)phenoxy)ethyl)phenyl)-3-(2-nitrophenyl)urea], for which the IC50 is < 1 µM.

For `c1csc(CCOc2ccccc2-c2c[nH]cn2)c1` [compound 1198, 4-(2-(2-(thiophen-2-yl)ethoxy)phenyl)-1H-imidazole], the IC50 lay within 10 to 100 µM.

As for `O=C(CC1CCCO1)Nc1ccc(CCOc2ccccc2-c2c[nH]cn2)cc1` (centres unmarked) [compound 1199, N-(4-(2-(2-(1H-imidazol-4-yl)phenoxy)ethyl)phenyl)-2-(tetrahydrofuran-2-yl)acetamide], the IC50 lay within 1 to 10 µM.

In the case of `c1csc(-c2ccc(CCOc3ccccc3-c3c[nH]cn3)cc2)c1` [compound 1200, 4-(2-(4-(thiophen-2-yl)phenethoxy)phenyl)-1H-imidazole], the IC50 is 10 to 100 µM.

Turning to `c1ccc(-c2c[nH]cn2)c(OCCc2ccc(-c3ccsc3)cc2)c1` [compound 1201, 4-(2-(4-(thiophen-3-yl)phenethoxy)phenyl)-1H-imidazole], the IC50 is 10 to 100 µM.

On to `c1ccc(-c2c[nH]cn2)c(OCCc2csc3ccccc23)c1` [compound 1202, 4-(2-(2-(benzo[b]thiophen-3-yl)ethoxy)phenyl)-1H-imidazole], for which the IC50 fell in the range of 10 to 100 µM.

On to `c1ccc(-c2c[nH]cn2)c(OCCc2ccsc2)c1` [compound 1203, 4-(2-(2-(thiophen-3-yl)ethoxy)phenyl)-1H-imidazole], for which the IC50 was in the range of 10 to 100 µM.

With `O=C(Nc1ccc(CCOc2ccccc2-c2c[nH]cn2)cc1)c1ccc[nH]c1=O` [compound 1204, N-(4-(2-(2-(1H-imidazol-4-yl)phenoxy)ethyl)phenyl)-2-oxo-1,2-dihydropyridine-3-carboxamide], the IC50 fell in the range of 1 to 10 µM.

In the case of `CC(=O)NCc1ccccc1-c1c[nH]cn1` [compound 1207, N-(2-(1H-imidazol-4-yl)benzyl)acetamide], the IC50 was > 100 µM.

Turning to `O=C(CC1CCOCC1)Nc1ccc(CCOc2ccccc2-c2c[nH]cn2)cc1` [compound 1211, N-(4-(2-(2-(1H-imidazol-4-yl)phenoxy)ethyl)phenyl)-2-(tetrahydro-2H-pyran-4-yl)acetamide], the IC50 fell in the range of 1 to 10 µM.

For `CN1CCN(CC(=O)Nc2ccc(CCOc3ccccc3-c3c[nH]cn3)cc2)CC1` [compound 1212, N-(4-(2-(2-(1H-imidazol-4-yl)phenoxy)ethyl)phenyl)-2-(4-methylpiperazin-1-yl)acetamide], the IC50 was 10 to 100 µM.

Consider `c1ccc(-c2c[nH]cn2)c(OCCC2CCCO2)c1` (centres unmarked) [compound 1213, 4-(2-(2-(tetrahydrofuran-2-yl)ethoxy)phenyl)-1H-imidazole], for which the IC50 lay within 10 to 100 µM.

`O=C(CN1CCOCC1)Nc1ccc(CCOc2ccccc2-c2c[nH]cn2)cc1` [compound 1214, N-(4-(2-(2-(1H-imidazol-4-yl)phenoxy)ethyl)phenyl)-2-morpholinoacetamide]: the IC50 lay in the range of 1 to 10 µM.

As for `NC1CCCCC1NC(=O)Nc1ccc(CCOc2ccccc2-c2c[nH]cn2)cc1` (centres unmarked) [compound 1216, 1-(4-(2-(2-(1H-imidazol-4-yl)phenoxy)ethyl)phenyl)-3-(2-aminocyclohexyl)urea], the IC50 was 1 to 10 µM.

For the molecule `O=C(Cn1ccnc1)Nc1ccc(CCOc2ccccc2-c2c[nH]cn2)cc1` [compound 1217, N-(4-(2-(2-(1H-imidazol-4-yl)phenoxy)ethyl)phenyl)-2-(1H-imidazol-1-yl)acetamide], the IC50 is 1 to 10 µM.

Consider `Clc1ccc(CCOc2ccccc2-c2c[nH]cn2)cn1` [compound 1218, 5-(2-(2-(1H-imidazol-4-yl)phenoxy)ethyl)-2-chloropyridine], for which the IC50 was 10 to 100 µM.

Consider `O=C(CN1CCCCCC1)Nc1ccc(CCOc2ccccc2-c2c[nH]cn2)cc1` [compound 1219, N-(4-(2-(2-(1H-imidazol-4-yl)phenoxy)ethyl)phenyl)-2-(azepan-1-yl)acetamide], for which the IC50 is 10 to 100 µM.

As for `Oc1cc(Cl)cc(-c2cnc[nH]2)c1O` [compound 1221, 5-chloro-3-(1H-imidazol-5-yl)benzene-1,2-diol], the IC50 is 1 to 10 µM.

On to `c1ccc(Nc2nc3ccc(CCOc4ccccc4-c4c[nH]cn4)cc3o2)cc1` [compound 1222, 6-(2-(2-(1H-imidazol-4-yl)phenoxy)ethyl)-N-phenylbenzo[d]oxazol-2-amine], for which the IC50 lay in the range of 1 to 10 µM.

Turning to `c1ccc(-c2c[nH]cn2)c(OCCc2ccc(N3CCCCC3)cc2)c1` [compound 1223, 1-(4-(2-(2-(1H-imidazol-4-yl)phenoxy)ethyl)phenyl)piperidine], the IC50 lay within 10 to 100 µM.

In the case of `O=C(Nc1ccccc1)Nc1ccc(CCOc2ccccc2-c2c[nH]cn2)cn1` [compound 1224, 1-(5-(2-(2-(1H-imidazol-4-yl)phenoxy)ethyl)pyridin-2-yl)-3-phenylurea], the IC50 was in the range of 1 to 10 µM.
